Data set [1] can be described thus: Pharmacokinetics in plasma and lung in mouse. It is filed as in vivo. The conditions noted are these: single oral aspiration, 0.2 mg/mL, 50 μL. On the procedure:
Plasma and lung concentrations of test compounds and ratios thereof were determined in the following manner. BALB/c mice from Charles River Laboratories were used in the assay. Test compounds were individually formulated in 20% propylene glycol in pH 4 citrate buffer at a concentration of 0.2 mg/mL and 50 μL of the dosing solution was introduced into the trachea of a mouse by oral aspiration. At various time points (typically 0.167, 2, 6, 24 hr) post dosing, blood samples were removed via cardiac puncture and intact lungs were excised from the mice.

The test system of data set [2] is IFNγ secretion in mixed lymphocyte reaction. The data set is described as follows: Inhibition of IFNγ secretion in a mixed lymphocyte reaction assay. The conditions noted are these: summary statement. It is filed as cell-based, human. Here is the method:
The mixed lymphocyte reaction assay is an in-vitro assay that mimics transplant rejection. T cells from one donor are cultured with allogeneic dendritic cells from another donor. This reaction induces a cellular immune response such as IFNγ secretion. CD14+ monocytes were isolated from human whole blood (Stanford blood center) of donor A using a ficoll gradient and magnetic seperation (CD14 microbeads, Miltenyi). […] Cells were harvested, washed with media, re-suspended to 400,000 cells/ml in media and plated at 10,000 cells/well/25 μl. CD4+ T cells were freshly isolated from human whole blood (Stanford blood center) of donor B using a ficoll gradient and magnetic separation (CD4+ T cell isolation kit, Miltenyi). T cells were re-suspended to 4,000,000 cells/ml in RPMI (Life Technologies) supplemented with 10% Fetal Bovine Serum (FBS, Life Technologies), 2 mM Glutamax (Life Technologies), 25 mM HEPES (Life Technologies) and 1× Pen/Strep (Life Technologies). CD4+ T cells were mixed with the dendritic cells at 100,000 cells/well/25p. […] On day 5, supernatants were collected and measured for interferon gamma (INFγ) using enzyme linked immunosorbent assay (ELISA). Percent inhibition was determined by compound inhibitory potency against IFNγ secretion compared to vehicle treated cells. […]

Data set [3] is described as follows: Lung S9 metabolism. The conditions noted are these: for Compound Remaining at 60 min (%): human lung S9, 1 μM compound, 1 mg/mL S9 protein, NADPH and PAPS; for Sulfate Appearance: qualitative, O-sulfate metabolite peak in human lung S9. It is filed as in vitro ADME, human. Here is the method: The time 0, 15, 30, and 60 minute samples were analyzed for parent compound by high resolution LC-MS/MS. Lung S9 fractions from human (lot 1410245) were purchased from XenoTech LLC (Lenexa, Kans.). NADPH (Sigma Aldrich, N1630) and 3-phosphoadenosine 5-phosphosulfate (PAPS) (Sigma Aldrich, A1651) were purchased from Sigma Aldrich (St. Louis, Mo.). Acetonitrile and water were obtained from VWR (Radnor, Pa.) and were of HPLC grade or better. Raloxifene and formic acid was purchased from Sigma Aldrich (St. Louis, Mo.). Lung S9 incubations were performed in a water bath at 37° C. in a 96-well polypropylene plate. […] Louis, Mo.), 3 mM magnesium chloride (Sigma Aldrich, M1028) and in the presence of 100 μM PAPS (Sigma-Aldrich, St. […] Incubation volumes consisted of 400 μL and time points were taken at 0, 15, 30, and 60 minutes by the removal of a 70 μL aliquot and dilution into 140 μL acetonitrile (0% formic acid). All samples were centrifuged at 2250 g for 10 minutes at 5° C. Supernatant (50 μL) was taken from the centrifuged samples and diluted into 100 μL HPLC water containing internal standard. The samples were run on a Dionex Ultimate 3000 Auto sampler and analyzed using a Thermo Q-Exactive High Resolution Mass Spectrometer (Thermo, Waltham, Mass.) in Full Scan mode in conjunction with an Atlantis T3 column 3 μM−2.1×50 mm (Waters Inc., 186003717). Mobile Phase A consisted of Water+0.2% formic acid and Mobile Phase B consisted of acetonitrile+0.2% formic acid. Peak integration was accomplished using Gubbs GMSU software (Gubbs Inc., Alpharetta, Ga.). For each sample, peak area ratios were calculated by dividing the analyte peak area by the internal standard peak area. For each incubation, the peak area ratios of the analytes in each t0 was set to 100%, and the peak areas ratios from the 60 minute samples were converted to percentages remaining relative to the corresponding t0. Determination of sulfate metabolite formation was made qualitatively by observation of early-eluting peak in the parent ion channel which, based on historical internal data, corresponded to the O-sulfate metabolite of each parent compound.

Data set [4] addresses human JAK1 (Homo sapiens (Human), UniProt P23458). In words: Co-crystal structure with JAK1. As to conditions: resolution 2.28 Å. The text has this: A co-crystal structure was obtained of compound C-1 bound to human JAK1 at a resolution of 2.28 Å. […] Seven specific hydrogen bonding interactions were identified based upon a distance of 3.5 Å or less between donor and acceptor atoms. Of particular note, a hydrogen bonding interaction was identified between the carbonyl of the exocyclic amide of the compound of C-1 and the sidechain of Arg879 of JAK1. A similar interaction can be expected for the compounds of the invention.

Sequence of human JAK1 (P23458 whole entry): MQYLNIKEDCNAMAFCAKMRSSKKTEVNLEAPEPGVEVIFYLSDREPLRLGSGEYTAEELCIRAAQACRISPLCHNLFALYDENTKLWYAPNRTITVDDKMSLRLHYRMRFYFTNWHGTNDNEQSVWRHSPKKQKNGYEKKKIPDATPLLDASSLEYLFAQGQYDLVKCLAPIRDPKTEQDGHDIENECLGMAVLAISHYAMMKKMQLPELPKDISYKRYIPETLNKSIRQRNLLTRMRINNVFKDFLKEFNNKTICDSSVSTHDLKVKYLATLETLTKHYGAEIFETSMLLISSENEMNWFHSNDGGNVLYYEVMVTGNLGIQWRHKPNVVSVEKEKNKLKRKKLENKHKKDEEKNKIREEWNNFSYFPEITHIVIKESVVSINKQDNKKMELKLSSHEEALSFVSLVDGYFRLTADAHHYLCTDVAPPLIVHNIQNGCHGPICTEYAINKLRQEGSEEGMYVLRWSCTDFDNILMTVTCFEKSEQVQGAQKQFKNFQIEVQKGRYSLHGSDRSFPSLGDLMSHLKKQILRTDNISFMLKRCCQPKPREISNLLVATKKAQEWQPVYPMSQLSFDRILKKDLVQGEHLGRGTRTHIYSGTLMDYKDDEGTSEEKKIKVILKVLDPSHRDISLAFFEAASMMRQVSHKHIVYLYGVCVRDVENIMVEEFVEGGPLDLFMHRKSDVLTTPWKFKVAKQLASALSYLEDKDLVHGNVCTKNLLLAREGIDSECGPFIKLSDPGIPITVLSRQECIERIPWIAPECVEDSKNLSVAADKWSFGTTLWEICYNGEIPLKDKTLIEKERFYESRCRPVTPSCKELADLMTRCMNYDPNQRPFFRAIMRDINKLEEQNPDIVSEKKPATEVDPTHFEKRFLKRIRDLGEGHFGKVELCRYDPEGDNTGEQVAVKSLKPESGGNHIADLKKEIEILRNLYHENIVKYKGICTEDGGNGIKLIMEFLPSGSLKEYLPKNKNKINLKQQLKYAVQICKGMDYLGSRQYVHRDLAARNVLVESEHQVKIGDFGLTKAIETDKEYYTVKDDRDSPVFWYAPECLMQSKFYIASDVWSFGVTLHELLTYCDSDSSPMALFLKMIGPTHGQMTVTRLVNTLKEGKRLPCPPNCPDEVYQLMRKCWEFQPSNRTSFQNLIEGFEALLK

Consider `CCc1cc(O)ccc1-c1ccc2c(-c3nc4c([nH]3)CN(C(C)C)[C@H](C(=O)N3CC(N(C)C)C3)C4)n[nH]c2c1` [Compound 1, (S)-(3-(dimethylamino)azetidin-1-yl)(2-(6-(2-ethyl-4-hydroxyphenyl)-1H-indazol-3-yl)-5-isopropyl-4,5,6,7-tetrahydro-3H-imidazo[4,5-c]pyridin-6-yl)methanone], for which, in data set [1], the “Plasma AUC(0-24)” value worked out at 943 ng·h/mL. Besides, the “inhibition of IFNγ secretion in mixed lymphocyte reaction (in words)” value in data set [2] is “effectively inhibit IFNγ secretion”. For the same compound, in data set [3], the “Compound Remaining at 60 min (%)” value was 81% and the “Sulfate Appearance” value was “Yes”.

As to `CCc1cc(O)ccc1-c1ccc2c(-c3nc4c([nH]3)CN(CC)[C@H](C(=O)N3CC(N(C)C)C3)C4)n[nH]c2c1` [Compound 2, (S)-(3-(dimethylamino)azetidin-1-yl)(5-ethyl-2-(6-(2-ethyl-4-hydroxyphenyl)-1H-indazol-3-yl)-4,5,6,7-tetrahydro-3H-imidazo[4,5-c]pyridin-6-yl)methanone], in data set [3], the “Compound Remaining at 60 min (%)” value is given as 98% and the “Sulfate Appearance” value was “Yes”.

Take `CCc1cc(O)ccc1-c1ccc2c(-c3nc4c([nH]3)CN(CC)[C@H](C(=O)N3CC(C)(N(C)C)C3)C4)n[nH]c2c1` [Compound 3, (S)-(3-(dimethylamino)-3-methylazetidin-1-yl)(5-ethyl-2-(6-(2-ethyl-4-hydroxyphenyl)-1H-indazol-3-yl)-4,5,6,7-tetrahydro-3H-imidazo[4,5-c]pyridin-6-yl)methanone]: in data set [3], the “Compound Remaining at 60 min (%)” value was 97% and the “Sulfate Appearance” value is “Yes”.

On to `CCc1cc(O)ccc1-c1ccc2c(-c3nc4c([nH]3)CN(C(C)C)[C@H](C(=O)N3CC(C)(N(C)C)C3)C4)n[nH]c2c1` [Compound 4, (S)-(3-(dimethylamino)-3-methylazetidin-1-yl)(2-(6-(2-ethyl-4-hydroxyphenyl)-1H-indazol-3-yl)-5-isopropyl-4,5,6,7-tetrahydro-3H-imidazo[4,5-c]pyridin-6-yl)methanone], for which, in data set [3], the “Compound Remaining at 60 min (%)” value was 100% and the “Sulfate Appearance” value was “Yes”.

Take `CCCN1Cc2[nH]c(-c3n[nH]c4cc(-c5ccc(O)cc5CC)ccc34)nc2C[C@H]1C(=O)N1CC(N(C)C)C1` [Compound 5, (S)-(3-(dimethylamino)azetidin-1-yl)(2-(6-(2-ethyl-4-hydroxyphenyl)-1H-indazol-3-yl)-5-propyl-4,5,6,7-tetrahydro-3H-imidazo[4,5-c]pyridin-6-yl)methanone]: in data set [3], the “Compound Remaining at 60 min (%)” value was 96% and the “Sulfate Appearance” value was “Yes”.

In the case of `CCCN1Cc2[nH]c(-c3n[nH]c4cc(-c5ccc(O)cc5CC)ccc34)nc2C[C@H]1C(=O)N1CC(C)(N(C)C)C1` [Compound 6, (S)-(3-(dimethylamino)-3-methylazetidin-1-yl)(2-(6-(2-ethyl-4-hydroxyphenyl)-1H-indazol-3-yl)-5-propyl-4,5,6,7-tetrahydro-3H-imidazo[4,5-c]pyridin-6-yl)methanone], in data set [3], the “Compound Remaining at 60 min (%)” value was 90% and the “Sulfate Appearance” value is listed as “Yes”.

Regarding `CCc1cc(O)c(F)cc1-c1ccc2c(-c3nc4c([nH]3)CN(C(C)C)[C@H](C(=O)N3CC(N(C)C)C3)C4)n[nH]c2c1` [Compound C-1, (S)-(3-(dimethylamino)azetidin-1-yl)(2-(6-(2-ethyl-5-fluoro-4-hydroxyphenyl)-1H-indazol-3-yl)-5-isopropyl-4,5,6,7-tetrahydro-3H-imidazo[4,5-c]pyridin-6-yl)methanone, reference compound], the “binding site observed in co-crystal structure” value in data set [4] is “bind in the ATP binding site”. Moreover, in data set [3], the “Compound Remaining at 60 min (%)” value came to 6% and the “Sulfate Appearance” value was “Yes”.

`CCc1cc(O)c(F)cc1-c1ccc2c(-c3nc4c([nH]3)CN(CC)[C@H](C(=O)N3CC(N(C)C)C3)C4)n[nH]c2c1` [Compound C-2, (S)-(3-(dimethylamino)azetidin-1-yl)(5-ethyl-2-(6-(2-ethyl-5-fluoro-4-hydroxyphenyl)-1H-indazol-3-yl)-4,5,6,7-tetrahydro-3H-imidazo[4,5-c]pyridin-6-yl)methanone, reference compound]: in data set [3], the “Compound Remaining at 60 min (%)” value was determined as 6% and the “Sulfate Appearance” value is “Yes”.

With `CCc1cc(O)c(F)cc1-c1ccc2c(-c3nc4c([nH]3)CN(CC)[C@H](C(=O)N3CC(C)(N(C)C)C3)C4)n[nH]c2c1` [Compound C-3, (S)-(3-(dimethylamino)-3-methylazetidin-1-yl)(5-ethyl-2-(6-(2-ethyl-5-fluoro-4-hydroxyphenyl)-1H-indazol-3-yl)-4,5,6,7-tetrahydro-3H-imidazo[4,5-c]pyridin-6-yl)methanone, reference compound], in data set [3], the “Compound Remaining at 60 min (%)” value came out at 5% and the “Sulfate Appearance” value is listed as “Yes”.

Take `CCc1cc(O)c(F)cc1-c1ccc2c(-c3nc4c([nH]3)CN(C(C)C)[C@H](C(=O)N3CC(C)(N(C)C)C3)C4)n[nH]c2c1` [Compound C-4, (S)-(3-(dimethylamino)-3-methylazetidin-1-yl)(2-(6-(2-ethyl-5-fluoro-4-hydroxyphenyl)-1H-indazol-3-yl)-5-isopropyl-4,5,6,7-tetrahydro-3H-imidazo[4,5-c]pyridin-6-yl)methanone, reference compound]: in data set [3], the “Compound Remaining at 60 min (%)” value stood at 4% and the “Sulfate Appearance” value is on record as “Yes”.

Turning to `CCCN1Cc2[nH]c(-c3n[nH]c4cc(-c5cc(F)c(O)cc5CC)ccc34)nc2C[C@H]1C(=O)N1CC(N(C)C)C1` [Compound C-5, (S)-(3-(dimethylamino)azetidin-1-yl)(2-(6-(2-ethyl-5-fluoro-4-hydroxyphenyl)-1H-indazol-3-yl)-5-propyl-4,5,6,7-tetrahydro-3H-imidazo[4,5-c]pyridin-6-yl)methanone, reference compound], in data set [3], the “Compound Remaining at 60 min (%)” value was determined as 5% and the “Sulfate Appearance” value is on record as “Yes”.

As to `CCCN1Cc2[nH]c(-c3n[nH]c4cc(-c5cc(F)c(O)cc5CC)ccc34)nc2C[C@H]1C(=O)N1CC(C)(N(C)C)C1` [Compound C-6, (S)-(3-(dimethylamino)-3-methylazetidin-1-yl)(2-(6-(2-ethyl-5-fluoro-4-hydroxyphenyl)-1H-indazol-3-yl)-5-propyl-4,5,6,7-tetrahydro-3H-imidazo[4,5-c]pyridin-6-yl)methanone, reference compound], in data set [3], the “Compound Remaining at 60 min (%)” value was found to be 4% and the “Sulfate Appearance” value is on record as “Yes”.

Source of the values: patent US11634419B2, “Dimethyl amino azetidine amides as JAK inhibitors” (THERAVANCE BIOPHARMA R&D IP, LLC, priority 2018, dated 2023).
